Laboratory results reported in patent US20190365741A1, “COMBINATIONS OF THE CDK4/6 INHIBITOR LEE011 AND THE MEK1/2 INHIBITOR TRAMETINIB, OPTIONALLY FURTHER COMPRISING THE PI3K INHIBITOR BYL719 TO TREAT CANCER” (Novartis AG, priority 2015, published 2019).
“Also recorded” adds a separate entry of the source.

Tests used:
Assay type in all cases: cell-based
RKO = experiment: Cell proliferation (cell count by microscopy), single agents and combinations; conditions: Homo sapiens, 72 h, concentration giving 50% of cell counts relative to DMSO
Method: (§1) The compounds were dissolved in 100% DMSO (Sigma, Catalog number D2650) at concentrations of 20 mM and stored at −20° C. until use.
(§2) Colorectal cancer cell lines used for this study were obtained, cultured and processed from commercial vendors ATCC, CellBank Australia, DMSZ, ECACC, and HSRRB (Table 1). All cell line media were supplemented with 10% FBS (HyClone, Catalog number SH30071.03).
(§3) Cell lines were cultured in 37° C. and 5% CO2 incubator and expanded in T-75 flasks. In all cases cells were thawed from frozen stocks, expanded through≥1 passage using 1:3 dilutions, counted and assessed for viability using a ViCell counter (Beckman-Coulter) prior to plating. […] All cell lines were determined to be free of mycoplasma contamination as determined by a PCR detection methodology performed at Idexx Radil (Columbia, Mo., USA) and correctly identified by detection of a panel of SNPs.
(§4) The debris counts were subtracted from raw nuclei counts.
(§5) The compound's effect on cell proliferation was calculated from the cell counts of the treatments relative to the cell counts of the negative control (DMSO), in FIG. 1 and FIG. 3 denoted as ‘Normalized cell count’ (=‘xnorm’) on the y-axis. […] The model input were inhibition values per drug dose:
(§6) I=1−xnorm • I: inhibition • xnorm: normalized cell count (median of three replicates)
(§7) To favor combination effects at high inhibition the residuals were weighted with the observed inhibition at the same dose point. The overall combination score C of a drug combination is the sum of the weighted residuals over all concentrations:
(§8) C=ΣCone (Idata*(Idata−Imodel)) • Idata: measured inhibition Imodel: inhibition according to HSA null hypothesis
(§9) Robust combination z-scores (zC) were calculated as the ratio of the treatments' combination scores C and the median absolute deviation (mad) of non-interacting combinations:
(§10) zC=C/mad(Czero) • Czero: combination scores of non-interacting combinations zC is an indicator for the strength of the combination with:
(§11) In order to assess the effect of the triple combination all individual compounds, all three pair wise combinations, and the triple combination were tested in the same experiment.
(§12) (Boston Bioproducts, Catalog number BM-220).

LS-180 = experiment: as above; conditions: Homo sapiens, LS180; LS-180, 72 h, concentration giving 50% of cell counts relative to DMSO
Method: as §1, §2, §3, §4, §5, §6, §7, §8, §9, §10, §11, §12

LIM2551 = experiment: as above; conditions: LIM2551, 72 h, concentration giving 50% of cell counts relative to DMSO
Method: as §1, §2, §3, §4, §5, §6, §7, §8, §9, §10, §11, §12

SW480 = experiment: as above; conditions: Homo sapiens; SW480, 72 h, concentration giving 50% of cell counts relative to DMSO
Method: as §1, §2, §3, §4, §5, §6, §7, §8, §9, §10, §11, §12

LoVo = experiment: as above; conditions: Homo sapiens, 96 h, concentration giving 50% of cell counts relative to DMSO
Method: as §1, §2, §3, §4, §5, §6, §7, §8, §9, §10, §11, §12

HT-29 = experiment: as above; conditions: Homo sapiens; HT-29, 72 h, concentration giving 50% of cell counts relative to DMSO
Method: as §1, §2, §3, §4, §5, §6, §7, §8, §9, §10, §11, §12

DLD-1 = experiment: as above; conditions: Homo sapiens; DLD-1, 72 h, concentration giving 50% of cell counts relative to DMSO
Method: as §1, §2, §3, §4, §5, §6, §7, §8, §9, §10, §11, §12

NCI-H508 = experiment: as above; conditions: Homo sapiens; NCI-H508, 72 h, concentration giving 50% of cell counts relative to DMSO
Method: as §1, §2, §3, §4, §5, §6, §7, §8, §9, §10, §11, §12

COLO-205 = experiment: as above; conditions: Homo sapiens; COLO-205, 72 h, concentration giving 50% of cell counts relative to DMSO
Method: as §1, §2, §3, §4, §5, §6, §7, §8, §9, §10, §11, §12

OUMS-23 = experiment: as above; conditions: OUMS-23, 72 h, concentration giving 50% of cell counts relative to DMSO
Method: as §1, §2, §3, §4, §5, §6, §7, §8, §9, §10, §11, §12

HCT-116 = experiment: as above; conditions: Homo sapiens; HCT-116, 72 h, concentration giving 50% of cell counts relative to DMSO
Method: as §1, §2, §3, §4, §5, §6, §7, §8, §9, §10, §11, §12

GP2d = experiment: as above; conditions: 72 h, concentration giving 50% of cell counts relative to DMSO
Method: as §1, §2, §3, §4, §5, §6, §7, §8, §9, §10, §11, §12

SW837 = experiment: as above; conditions: Homo sapiens; SW837, 72 h, concentration giving 50% of cell counts relative to DMSO
Method: as §1, §2, §3, §4, §5, §6, §7, §8, §9, §10, §11, §12

COLO-320 = experiment: as above; conditions: Homo sapiens; COLO-320, 72 h, concentration giving 50% of cell counts relative to DMSO
Method: as §1, §2, §3, §4, §5, §6, §7, §8, §9, §10, §11, §12

LS411N = experiment: as above; conditions: Homo sapiens, LS-411N, 72 h, concentration giving 50% of cell counts relative to DMSO
Method: as §1, §2, §3, §4, §5, §6, §7, §8, §9, §10, §11, §12

[1] = tested on: 15 colorectal cancer cell lines; experiment: Cell proliferation, summary over the cell line panel; conditions: single agent, across the cell lines in which growth was inhibited
Method: as §1, §2, §4
as §5, with “dose: […]” for “dose:”
as §12

SMILES	IC50 (RKO) [nM]	IC50 (LS-180) [nM]	IC50 (LIM2551) [nM]	IC50 (SW480) [nM]	IC50 (LoVo) [nM]	IC50 (HT-29) [nM]	IC50 (DLD-1) [µM]	IC50 (NCI-H508) [nM]	IC50 (COLO-205) [nM]	IC50 (OUMS-23) [µM]	IC50 (HCT-116) [µM]	IC50 (GP2d) [nM]	IC50 (SW837) [µM]	IC50 (COLO-320) [nM]	IC50 (LS411N) [nM]	IC50 values, magnitude in words [1]
Cc1nc(NC(=O)N2CCC[C@H]2C(N)=O)sc1-c1ccnc(C(C)(C)C(F)(F)F)c1 [BYL719, (S)-Pyrrolidine-1,2-dicarboxylic acid 2-amide 1-({4-methyl-5-[2-(2,2,2-trifluoro-1,1-dimethyl-ethyl)-pyridin-4-yl]-thiazol-2-yl}-amide)]	3900	> 10000	2300	> 10000	> 10000	2700	> 10	500	> 10000	> 10	9.8	500	> 10	8300	> 10000	mostly micromolar
CC(=O)Nc1cccc(-n2c(=O)n(C3CC3)c(=O)c3c(Nc4ccc(I)cc4F)n(C)c(=O)c(C)c32)c1 [Trametinib, N-{3-[3-cyclopropyl-5-(2-fluoro-4-iodo-phenylamino)6,8-dimethyl-2,4,7-trioxo-3,4,6,7-tetrahydro-2H-pyrido[4,3-d]pyrimidin-1-yl]phenyl}acetamide]	21	18	5	55	7	4	0.153	7	4	> 0.3	0.038	> 300	0.051	> 300	7	nanomolar to sub-micromolar
CN(C)C(=O)c1cc2cnc(Nc3ccc(N4CCNCC4)cn3)nc2n1C1CCCC1 [LEE011, 7-Cyclopentyl-2-(5-piperazin-1-yl-pyridin-2-ylamino)-7H-pyrrolo[2,3-d]pyrimidine-6-carboxylic acid dimethylamide]	1500	1800	1300	1600	800	800	4.1	700	1100	> 10	4.5	4500	> 10	2800	2100	mostly micromolar; also recorded: sub-micromolar to micromolar
